Test system: pp150-specific T cell clones
Assay: Chromium release assay with peptide-sensitized EBVLCL and pp150-specific CTL clones (epitope mapping)
Type: cell-based, human
Details: persons having the indicated HLA allele; target cells sensitized with peptide at 50 μM

Sequence: TTVYPPSSTAK (listed as Human cytomegalovirus) [SEQ ID NO: 1]
- Number of Individuals Tested: 2/2

Sequence: QTVTSTPVQGR (listed as Human cytomegalovirus) [SEQ ID NO: 2]
- Number of Individuals Tested: 2/2
